Data published in PMC7901654, “Bioisosteric Discovery of NPA101.3, a Second-Generation RET/VEGFR2 Inhibitor Optimized for Single-Agent Polypharmacology” (Journal of Medicinal Chemistry, 2020).
Entries after “also recorded” stand apart in the source; their conditions may differ.

Columns and labels:
human VEGFR2 = biological target: T1, human VEGFR2 (Homo sapiens, UniProt P35968); assay: Ligand-induced VEGFR2 autophosphorylation in transfected HEK293 cells; format: cell-based; settings: 2 h, VEGFA 100 ng/mL
T1 construct: expressed in transfected cells; host or cells: HEK293, transient transfection
Procedure: Fibroblasts transfected with RET/C634R were treated with increasing doses of NPA101.3, ranging from 0.1 to 10.0 nM. RET autophosphorylation was assessed by Western blotting using two different antibodies that can recognize phosphorylated Y905, located in the RET kinase activation loop, or Y1062, a multidocking site involved in RET downstream signaling.[41]
Figure 4 NPA101.3-mediated inhibition of phosphorylation and signaling of oncogenic RET mutants and VEGFR2 in intact cells. Serum-starved RAT1 cells exogenously expressing the (A and B) indicated RET point mutants or (C) NIH3T3 cells exogenously expressing the indicated RET rearranged mutants were treated for 2 h with the indicated concentrations of the compound. Total cell lysates (50 μg) were subjected to immunoblotting with anti-phospho-Y1062 (αp1062) and anti-phospho-Y905 (αp905) RET antibodies. The blots were normalized using the anti-RET (αRET) antibody. (D) HEK293 cells were transiently transfected with human VEGFR2; 36 h after transfection, cells were serum starved for 12 h. The indicated doses of the compound or vehicle (NT) were added for 2 h, and then VEGFA (100 ng/mL) stimulation was applied for 15 min. […]
Protein lysates were prepared according to standard procedures. […] Immune complexes were detected with the enhanced chemiluminescence kit (Amersham Pharmacia Biotech, Little Chalfont, U.K.). […]

NIH3T3 HRAS/G12V tumors = assay: Mouse xenograft, NIH3T3 HRAS/G12V; format: in vivo
Procedure: In vivo target (RET and VEGFR2) inhibition was studied by treating animals grafted with NIH3T3 RET/C634Y cells at different doses (0.3, 1, or 3 mg/kg/day p.o.) of NPA101.3 for 2 days and then performing Western blot analysis on protein extracts. […] Then, to determine antitumorigenic activity and to better distinguish RET- and VEGFR2-mediated effects, we tested NPA101.3 in nude mice transplanted with NIH3T3 cells transformed by either RET/C634Y or HRAS/G12V. Before tumors appeared, animals were treated daily with NPA101.3 (1.0, 3.0, or 10.0 mg/kg/day) or left untreated. […] Still, VEGFR2 inhibition was detected also in RAS-driven tumors, an effect that might explain the, albeit reduced, effect of the drug on their growth (Figure S13). Importantly, as predicted, no trace of NPA101.3 demethyl metabolites was detected after 1 or 4 h from oral dosing in mice (Figure S14).
Figure 6 Effects of NPA101.3 on in vivo tumor growth. NIH3T3 cells transformed by RET/C634Y or HRAS/G12V were inoculated subcutaneously into nu/nu mice. After 4 days, animals were randomly assigned to receive for the indicated time periods the compound (1.0, 3.0, or 10 mg/kg/day) (24 mice; 8 mice/group for 1, 3, and 10 mg/kg doses) or vehicle (8 mice) by oral gavage. The average size of tumors is reported ± SD.
NPA101.3 was dissolved in 80% H2O, 19.875% Tween 20, and 0.125% xanthan gum. The formulation was stored at room temperature and vortexed prior to administration. NIH3T3 RET/C634Y (200000) or NIH3T3 HRAS/G12V (50000) cells were inoculated subcutaneously into the dorsal portion (both sides) of 6-week-old female BALB/c nu/nu mice (32 mice/cell line) (Jackson Laboratories, Bar Harbor, ME). After 4 days, before tumors had appeared, animals were randomly assigned to receive NPA101.3 (1.0, 3.0, or 10 mg/kg/day) (8 mice/group) or vehicle control (8 mice) by oral gavage. Tumor diameters were measured with caliper every 2–3 days. Tumor volumes (V) were calculated by the rotational ellipsoid formula V = A × B^2/2 (A is the axial diameter, and B is the rotational diameter). […]

T1 sequence (P35968 20-1356): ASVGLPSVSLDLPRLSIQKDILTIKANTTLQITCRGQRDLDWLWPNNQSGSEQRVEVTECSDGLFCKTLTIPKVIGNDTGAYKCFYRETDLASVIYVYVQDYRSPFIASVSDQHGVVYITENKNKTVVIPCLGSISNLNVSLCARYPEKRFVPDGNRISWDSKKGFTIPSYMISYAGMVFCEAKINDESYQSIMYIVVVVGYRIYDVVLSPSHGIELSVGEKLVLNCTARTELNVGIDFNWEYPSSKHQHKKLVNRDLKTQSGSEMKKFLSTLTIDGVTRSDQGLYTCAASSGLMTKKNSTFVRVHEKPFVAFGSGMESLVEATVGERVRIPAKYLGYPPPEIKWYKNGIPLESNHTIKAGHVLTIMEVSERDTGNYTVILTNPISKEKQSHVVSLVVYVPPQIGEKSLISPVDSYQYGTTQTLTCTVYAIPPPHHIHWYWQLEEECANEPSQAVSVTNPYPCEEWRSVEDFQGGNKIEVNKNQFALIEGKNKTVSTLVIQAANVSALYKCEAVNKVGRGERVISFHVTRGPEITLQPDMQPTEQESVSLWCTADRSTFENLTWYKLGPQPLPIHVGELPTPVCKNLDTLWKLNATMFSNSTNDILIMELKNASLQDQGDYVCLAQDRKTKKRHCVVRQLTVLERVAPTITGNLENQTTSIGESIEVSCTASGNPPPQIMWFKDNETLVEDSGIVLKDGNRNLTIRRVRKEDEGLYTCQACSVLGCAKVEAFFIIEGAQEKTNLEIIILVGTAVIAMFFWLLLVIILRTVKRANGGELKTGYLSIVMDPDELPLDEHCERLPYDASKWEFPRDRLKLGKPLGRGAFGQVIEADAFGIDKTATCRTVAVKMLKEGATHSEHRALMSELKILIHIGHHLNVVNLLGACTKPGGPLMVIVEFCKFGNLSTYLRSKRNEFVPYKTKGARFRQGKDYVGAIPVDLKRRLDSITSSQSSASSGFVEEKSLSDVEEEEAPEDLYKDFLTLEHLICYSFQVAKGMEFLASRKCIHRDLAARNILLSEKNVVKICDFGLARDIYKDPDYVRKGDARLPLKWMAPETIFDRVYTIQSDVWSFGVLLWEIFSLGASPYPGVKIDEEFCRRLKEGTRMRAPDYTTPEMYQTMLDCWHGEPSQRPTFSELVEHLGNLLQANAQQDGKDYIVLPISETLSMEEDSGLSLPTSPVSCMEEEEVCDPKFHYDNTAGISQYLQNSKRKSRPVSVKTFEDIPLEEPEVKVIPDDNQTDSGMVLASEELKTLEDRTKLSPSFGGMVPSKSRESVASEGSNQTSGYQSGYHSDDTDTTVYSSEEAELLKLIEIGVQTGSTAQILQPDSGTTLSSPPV

CC(C)(C)c1cc(NC(=O)Cc2ccc(-n3cnc4cc(-c5ccc(S(C)(=O)=O)cc5)ccc43)cc2)no1 [NPA101.3]
ligand-induced VEGFR2 autophosphorylation (human VEGFR2; 1.0 nM): reduced
inhibition of ligand-induced VEGFR2 autophosphorylation (human VEGFR2; 10.0 nM): virtually total
formation of tumors driven by HRAS/G12V (NIH3T3 HRAS/G12V tumors; 10 mg/kg/day oral, nu/nu mice): weakened, but did not abrogate; also recorded: reduced, but did not abrogate
RAS signaling (MAPK phosphorylation) in NIH3T3 HRAS/G12V tumors (NIH3T3 HRAS/G12V tumors; 3 h after last dose): virtually no effect
VEGFR2 inhibition in RAS-driven tumors (NIH3T3 HRAS/G12V tumors; 3 h after last dose): detected
